In US9708314B2, “Heterocyclic amide compound” (NISSAN CHEMICAL INDUSTRIES, LTD., priority 2013, dated 2017):

Legend:
Assay type in all cases: in vivo
[1] = test system: directly sowed Oryza sativa; assay: Test Example 4: effect on crop by application to foliage (diluvial soil, plastic box); conditions: for d: Application herbicide amount 320 g/ha, effect on crop; for d (directly sowed Oryza sativa) effect on crop: application to foliage, application herbicide amount 320 g/ha
Method in brief: (§1)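 Emulsion-formulated compound, diluted to a predetermined g/ha dose, applied by small sprayer to leaves and stems of 14-day-old seedlings grown in sterilized diluvial soil. Effect rated on 0–5 herbicidal-ratio scale three weeks on.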

Zea mays = assay: as above; conditions: for b: Application herbicide amount 320 g/ha, effect on crop; for b (Zea mays) effect on crop: application to foliage, application herbicide amount 320 g/ha
Method in brief: as §1

Triticum aestivum = assay: as above; conditions: for e: Application herbicide amount 320 g/ha, effect on crop; for e (Triticum aestivum) effect on crop: application to foliage, application herbicide amount 320 g/ha
Method in brief: as §1

[2] = test system: Beta vulgaris ssp. vulgaris; assay: as above; conditions: for f: Application herbicide amount 320 g/ha, effect on crop; for f (Beta vulgaris ssp. vulgaris) effect on crop: application to foliage, application herbicide amount 320 g/ha
Method in brief: as §1

Brassica campestris L. = assay: as above; conditions: for g: Application herbicide amount 320 g/ha, effect on crop; for g (Brassica campestris L.) effect on crop: application to foliage, application herbicide amount 320 g/ha
Method in brief: as §1

Glycine max = assay: as above; conditions: for c: Application herbicide amount 320 g/ha, effect on crop; for c (Glycine max) effect on crop: application to foliage, application herbicide amount 320 g/ha
Method in brief: as §1

Galium spurium = assay: Test Example 4: herbicidal effect by application to foliage (diluvial soil, plastic box); conditions: for Q: Application herbicide amount 320 g/ha; for Q (Galium spurium) herbicidal effect: application to foliage, application herbicide amount 320 g/ha
Method in brief: as §1

Setaria viridis = assay: as above; conditions: for G: Application herbicide amount 320 g/ha; for G (Setaria viridis) herbicidal effect: application to foliage, application herbicide amount 320 g/ha
Method in brief: as §1

Lolium multiflorum Lam. = assay: as above; conditions: for K: Application herbicide amount 320 g/ha; for K (Lolium multiflorum Lam.) herbicidal effect: application to foliage, application herbicide amount 320 g/ha
Method in brief: as §1

Veronica persica = assay: as above; conditions: for R: Application herbicide amount 320 g/ha; for R (Veronica persica) herbicidal effect: application to foliage, application herbicide amount 320 g/ha
Method in brief: as §1

Alopecurus myosuroides = assay: as above; conditions: for J: Application herbicide amount 320 g/ha; for J (Alopecurus myosuroides) herbicidal effect: application to foliage, application herbicide amount 320 g/ha
Method in brief: as §1

[3] = test system: Echinochloa crus-galli var. crus-galli; assay: as above; conditions: for H: Application herbicide amount 320 g/ha; for H (Echinochloa crus-galli var. crus-galli) herbicidal effect: application to foliage, application herbicide amount 320 g/ha
Method in brief: as §1

Chenopodium album = assay: as above; conditions: for O: Application herbicide amount 320 g/ha; for O (Chenopodium album) herbicidal effect: application to foliage, application herbicide amount 320 g/ha
Method in brief: as §1

Abutilon theophrasti = assay: as above; conditions: for M: Application herbicide amount 320 g/ha; for M (Abutilon theophrasti) herbicidal effect: application to foliage, application herbicide amount 320 g/ha
Method in brief: as §1

Digitaria ciliaris = assay: as above; conditions: for F: Application herbicide amount 320 g/ha; for F (Digitaria ciliaris) herbicidal effect: application to foliage, application herbicide amount 320 g/ha
Method in brief: as §1

Avena fatua = assay: as above; conditions: for I: Application herbicide amount 320 g/ha; for I (Avena fatua) herbicidal effect: application to foliage, application herbicide amount 320 g/ha
Method in brief: as §1

Apera spica-venti. = assay: as above; conditions: for L: Application herbicide amount 320 g/ha; for L (Apera spica-venti.) herbicidal effect: application to foliage, application herbicide amount 320 g/ha
Method in brief: as §1

Monochoria vaginalis = assay: Test Example 2: herbicidal activity, application during weed generation in submerged conditions; conditions: Eighteenth Table; application herbicide amount 320 g/ha
Method in brief: (§2)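 Post-emergence application under submerged conditions: water-diluted emulsion dosed onto the water surface (g/ha) when weeds reach one- to two-leaf stage. Soil flooded to 4 cm; greenhouse 25–30 °C. Herbicidal ratio graded in six classes, 0 (≤5%) to 5 (≥90%), at three weeks.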

Scirpus juncoides = assay: as above; conditions: Eighteenth Table; application herbicide amount 320 g/ha
Method in brief: as §2

[4] = test system: Echinochloa oryzacola Vasing.; assay: as above; conditions: Eighteenth Table; application herbicide amount 320 g/ha
Method in brief: as §2

Structure (SMILES)	d [1]	b (Zea mays)	e (Triticum aestivum)	f [2]	g (Brassica campestris L.)	c (Glycine max)	Q (Galium spurium)	G (Setaria viridis)	K (Lolium multiflorum Lam.)	R (Veronica persica)	J (Alopecurus myosuroides)	H [3]	O (Chenopodium album)	M (Abutilon theophrasti)	F (Digitaria ciliaris)	I (Avena fatua)	L (Apera spica-venti.)	C (Monochoria vaginalis) herbicidal ratio grade (Monochoria vaginalis)	B (Scirpus juncoides) herbicidal ratio grade (Scirpus juncoides)	A (Echinochloa oryzicola Vasing.) herbicidal ratio grade [4]	further results
CCC(C)Sc1nnc2c(C(=O)Nc3nnc(C)o3)ccc(C(F)(F)F)n12 (stereo not shown) [1-094]	3 (Herbicidal ratio of 40% or more and less than 70%)	0 (Herbicidal ratio of 5% or less (almost no effect))	1 (Herbicidal ratio of 5% or more and less than 20%)	5 (Herbicidal ratio of 90% or more (almost completely withered))	3 (Herbicidal ratio of 40% or more and less than 70%)	4 (Herbicidal ratio of 70% or more and less than 90%)	0 (Herbicidal ratio of 5% or less (almost no effect))	4 (Herbicidal ratio of 70% or more and less than 90%)	1 (Herbicidal ratio of 5% or more and less than 20%)	4 (Herbicidal ratio of 70% or more and less than 90%)	1 (Herbicidal ratio of 5% or more and less than 20%)	5 (Herbicidal ratio of 90% or more (almost completely withered))	5 (Herbicidal ratio of 90% or more (almost completely withered))	4 (Herbicidal ratio of 70% or more and less than 90%)	5 (Herbicidal ratio of 90% or more (almost completely withered))	2 (Herbicidal ratio of 20% or more and less than 40%)	1 (Herbicidal ratio of 5% or more and less than 20%)	3 (Herbicidal ratio of 40% or more and less than 70%)	3 (Herbicidal ratio of 40% or more and less than 70%)	4 (Herbicidal ratio of 70% or more and less than 90%)	–
Cc1nnc(NC(=O)c2ccc(C(F)(F)C(F)(F)F)n3c(C(C)C)nnc23)o1 [1-066]	3 (Herbicidal ratio of 40% or more and less than 70%)	0 (Herbicidal ratio of 5% or less (almost no effect))	0 (Herbicidal ratio of 5% or less (almost no effect))	4 (Herbicidal ratio of 70% or more and less than 90%)	0 (Herbicidal ratio of 5% or less (almost no effect))	0 (Herbicidal ratio of 5% or less (almost no effect))	1 (Herbicidal ratio of 5% or more and less than 20%)	1 (Herbicidal ratio of 5% or more and less than 20%)	0 (Herbicidal ratio of 5% or less (almost no effect))	4 (Herbicidal ratio of 70% or more and less than 90%)	0 (Herbicidal ratio of 5% or less (almost no effect))	4 (Herbicidal ratio of 70% or more and less than 90%)	5 (Herbicidal ratio of 90% or more (almost completely withered))	3 (Herbicidal ratio of 40% or more and less than 70%)	3 (Herbicidal ratio of 40% or more and less than 70%)	1 (Herbicidal ratio of 5% or more and less than 20%)	0 (Herbicidal ratio of 5% or less (almost no effect))	2 (Herbicidal ratio of 20% or more and less than 40%)	3 (Herbicidal ratio of 40% or more and less than 70%)	2 (Herbicidal ratio of 20% or more and less than 40%)	–
Cc1nnc(NC(=O)c2ccc(C(F)(F)F)n3c(N(C)c4ccccc4)nnc23)o1 [1-086]	1 (Herbicidal ratio of 5% or more and less than 20%)	1 (Herbicidal ratio of 5% or more and less than 20%)	0 (Herbicidal ratio of 5% or less (almost no effect))	5 (Herbicidal ratio of 90% or more (almost completely withered))	4 (Herbicidal ratio of 70% or more and less than 90%)	1 (Herbicidal ratio of 5% or more and less than 20%)	1 (Herbicidal ratio of 5% or more and less than 20%)	4 (Herbicidal ratio of 70% or more and less than 90%)	0 (Herbicidal ratio of 5% or less (almost no effect))	4 (Herbicidal ratio of 70% or more and less than 90%)	0 (Herbicidal ratio of 5% or less (almost no effect))	5 (Herbicidal ratio of 90% or more (almost completely withered))	5 (Herbicidal ratio of 90% or more (almost completely withered))	5 (Herbicidal ratio of 90% or more (almost completely withered))	5 (Herbicidal ratio of 90% or more (almost completely withered))	0 (Herbicidal ratio of 5% or less (almost no effect))	0 (Herbicidal ratio of 5% or less (almost no effect))	4 (Herbicidal ratio of 70% or more and less than 90%)	4 (Herbicidal ratio of 70% or more and less than 90%)	4 (Herbicidal ratio of 70% or more and less than 90%)	–
Cc1nnc(NC(=O)c2ccc(C(F)(F)F)n3c(COCC(F)(F)F)nnc23)o1 [1-020]	–	–	–	–	–	–	–	–	–	–	–	–	–	–	–	–	–	2 (Herbicidal ratio of 20% or more and less than 40%)	2 (Herbicidal ratio of 20% or more and less than 40%)	2 (Herbicidal ratio of 20% or more and less than 40%)	d (directly sowed Oryza sativa) effect on crop [1]: 0 (Herbicidal ratio of 5% or less (almost no effect)); b (Zea mays) effect on crop (Zea mays): 0 (Herbicidal ratio of 5% or less (almost no effect)); e (Triticum aestivum) effect on crop (Triticum aestivum): 1 (Herbicidal ratio of 5% or more and less than 20%); f (Beta vulgaris ssp. vulgaris) effect on crop [2]: 5 (Herbicidal ratio of 90% or more (almost completely withered)); g (Brassica campestris L.) effect on crop (Brassica campestris L.): 3 (Herbicidal ratio of 40% or more and less than 70%); c (Glycine max) effect on crop (Glycine max): 1 (Herbicidal ratio of 5% or more and less than 20%); Q (Galium spurium) herbicidal effect (Galium spurium): 3 (Herbicidal ratio of 40% or more and less than 70%); G (Setaria viridis) herbicidal effect (Setaria viridis): 3 (Herbicidal ratio of 40% or more and less than 70%); K (Lolium multiflorum Lam.) herbicidal effect (Lolium multiflorum Lam.): 1 (Herbicidal ratio of 5% or more and less than 20%); R (Veronica persica) herbicidal effect (Veronica persica): 3 (Herbicidal ratio of 40% or more and less than 70%); J (Alopecurus myosuroides) herbicidal effect (Alopecurus myosuroides): 1 (Herbicidal ratio of 5% or more and less than 20%); H (Echinochloa crus-galli var. crus-galli) herbicidal effect [3]: 5 (Herbicidal ratio of 90% or more (almost completely withered)); O (Chenopodium album) herbicidal effect (Chenopodium album): 5 (Herbicidal ratio of 90% or more (almost completely withered)); M (Abutilon theophrasti) herbicidal effect (Abutilon theophrasti): 2 (Herbicidal ratio of 20% or more and less than 40%); F (Digitaria ciliaris) herbicidal effect (Digitaria ciliaris): 4 (Herbicidal ratio of 70% or more and less than 90%); I (Avena fatua) herbicidal effect (Avena fatua): 1 (Herbicidal ratio of 5% or more and less than 20%); L (Apera spica-venti.) herbicidal effect (Apera spica-venti.): 1 (Herbicidal ratio of 5% or more and less than 20%)
Cc1nnc(NC(=O)c2ccc(C(F)(F)F)n3c(-c4ccccc4)nnc23)o1 [1-012]	–	–	–	–	–	–	–	–	–	–	–	–	–	–	–	–	–	2 (Herbicidal ratio of 20% or more and less than 40%)	2 (Herbicidal ratio of 20% or more and less than 40%)	2 (Herbicidal ratio of 20% or more and less than 40%)	d (directly sowed Oryza sativa) effect on crop [1]: 2 (Herbicidal ratio of 20% or more and less than 40%); b (Zea mays) effect on crop (Zea mays): 0 (Herbicidal ratio of 5% or less (almost no effect)); e (Triticum aestivum) effect on crop (Triticum aestivum): 0 (Herbicidal ratio of 5% or less (almost no effect)); f (Beta vulgaris ssp. vulgaris) effect on crop [2]: 3 (Herbicidal ratio of 40% or more and less than 70%); g (Brassica campestris L.) effect on crop (Brassica campestris L.): 4 (Herbicidal ratio of 70% or more and less than 90%); c (Glycine max) effect on crop (Glycine max): 1 (Herbicidal ratio of 5% or more and less than 20%); Q (Galium spurium) herbicidal effect (Galium spurium): 2 (Herbicidal ratio of 20% or more and less than 40%); G (Setaria viridis) herbicidal effect (Setaria viridis): 4 (Herbicidal ratio of 70% or more and less than 90%); K (Lolium multiflorum Lam.) herbicidal effect (Lolium multiflorum Lam.): 1 (Herbicidal ratio of 5% or more and less than 20%); R (Veronica persica) herbicidal effect (Veronica persica): 4 (Herbicidal ratio of 70% or more and less than 90%); J (Alopecurus myosuroides) herbicidal effect (Alopecurus myosuroides): 0 (Herbicidal ratio of 5% or less (almost no effect)); H (Echinochloa crus-galli var. crus-galli) herbicidal effect [3]: 4 (Herbicidal ratio of 70% or more and less than 90%); O (Chenopodium album) herbicidal effect (Chenopodium album): 5 (Herbicidal ratio of 90% or more (almost completely withered)); M (Abutilon theophrasti) herbicidal effect (Abutilon theophrasti): 3 (Herbicidal ratio of 40% or more and less than 70%); F (Digitaria ciliaris) herbicidal effect (Digitaria ciliaris): 3 (Herbicidal ratio of 40% or more and less than 70%); I (Avena fatua) herbicidal effect (Avena fatua): 0 (Herbicidal ratio of 5% or less (almost no effect)); L (Apera spica-venti.) herbicidal effect (Apera spica-venti.): 1 (Herbicidal ratio of 5% or more and less than 20%)
